Laboratory results: patent US8642801B2 (BHI Limited Partnership, priority 2003, dated 2014)

Columns and labels:
[1] = target: T1, Aβ1-40 (Homo sapiens, UniProt P05067); assay: MS (electrospray mass spectrometry) binding assay for Aβ40
T1 construct: most is normally secreted as a 40 (“Aβ1-40”) or 42 (“Aβ1-42”) amino acid peptide
Excerpt: (§1) The ability of a therapeutic compound of the invention to inhibit an interaction between an amyloidogenic protein and a glycoprotein or proteoglycan constituent of a basement membrane can be assessed by an in vitro binding assay, such as that described in U.S. Pat. No. 5,164,295, the contents of which are hereby incorporated by reference. Alternatively, the ability of a compound to bind to an amyloidogenic protein or to inhibit the binding of a basement membrane constituent (e.g., HSPG) to an amyloidogenic protein (e.g., Aβ) can be measured using a mass spectrometry assay where soluble protein, e.g., Aβ, IAPP, β2M is incubated with the compound. A compound which binds to, e.g., Aβ, will induce a change in the mass spectrum of the protein. Exemplary protocols for a mass spectrometry assay employing Aβ and IAPP can be found in the Examples, the results of which are provided in Table 3. The protocol can readily be modified to adjust the sensitivity of the data, e.g., by adjusting the amount of protein and/or compound employed. Thus, e.g., binding might be detected for test compounds noted as not having detectable binding employing less sensitive test protocols.
(§2) The test compounds were synthesized and screened by mass spectrometry (“MS”) assays, except for selected compounds which were purchased from a commercial source. The MS assay gives data on the ability of compounds to bind to proteins, in this example, to β-amyloid and IAPP.
(§3) The pH value of each sample was adjusted to 7.4 (±0.2) by addition of 0.1% aqueous sodium hydroxide. The solutions were then analyzed by electrospray ionization mass spectrometry using a Waters ZQ 4000 mass spectrometer. Samples were introduced by direct infusion at a flow-rate of 25 μL/min within 2 hr. after sample preparation. The source temperature was kept at 70° C. and the cone voltage was 20 V for all the analysis. Data were processed using Masslynx 3.5 software. The MS assay gives data on the ability of compounds to bind to soluble Aβ, whereas the ThT, EM and CD assays give data on inhibition of fibrillogenesis. In Table 3, a blank box means that a value was not determined for that compound in that assay.

[2] = target: T2, IAPP (Homo sapiens, UniProt P10997); assay: MS (electrospray mass spectrometry) binding assay for IAPP
T2 construct: which is a 37 amino acid peptide, derived from a larger precursor peptide, called pro-IAPP
T2 sequence (P10997 34-70 limits assumed): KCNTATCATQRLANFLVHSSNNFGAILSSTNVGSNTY

[3] = target: T3, NAC peptide (Homo sapiens, UniProt P37840); assay: Binding to NAC peptide by electrospray mass spectrometry; conditions: 5:1 ratio (20 μM NAC: 100 μM test compound or 40 μM NAC: 200 μM test compound), 6.6% EtOH, pH 7.4; bound complex peak area / unbound NAC peak area
T3 construct: NAC is a 35 amino acid long peptide with highly hydrophobic stretches
Method: The ability of the compounds of the present invention to bind to NAC peptide in aqueous solution was evaluated. The binding ability correlates to the intensities of the peptide-compound complex peaks observed by the Electrospray Mass Spectrum. Millipore distilled deionized water was used to prepare all aqueous solutions. For pH determination a Beckman Φ36 pH meter fitted with a Corning Semi-Micro Combination pH Electrode was employed.
The optimal cone voltage was determined to be 20V.
Mass spectrometry—Mass spectrometric analysis was performed using a Waters ZQ 4000 mass spectrometer equipped with a Waters 2795 sample manager. MassLynx 4.0 (earlier by MassLynx 3.5) was used for data processing and analysis. Test compounds were mixed with disaggregated peptides in aqueous media (6.6% EtOH) at a 5:1 ratio (20 μM NAC: 100 μM of test compound or 40 μM NAC:200 μM of test compound). The pH of the mixture was adjusted to 7.4 (±0.2) using 0.1% NaOH (3-5 μL). Periodically, NAC peptide solution at 20 μM or 40 μM was also prepared in the same fashion and run as control. The spectra were obtained by introducing the solutions to the electrospray source by direct infusion using a syringe pump at a flow rate of 25 μl/min, and scanning from 100 to 2100 Da in the positive mode. The scan time was 0.9 sec per scan with an inter-scan delay of 0.1 sec and the run time was 5 min for each sample. All the mass spectra were sum of 300 scans. The desolvation and source temperature was 70° C. and the cone and capillary voltage were maintained at 20 V and 3.2 kV respectively.
The total area under the peaks for the bound NAC-compound complex divided by total area under the peaks for unbound NAC was determined for each compound tested.

[4] = target: T2, IAPP; assay: MS (electrospray mass spectrometry) binding assay for IAPP; conditions: Table 3C; 20 μM Aβ peptide, 100 μM compound (so in the source)
Excerpt: as §1, §2
as §3, with “In the MS assay for Aβ40, samples were prepared as aqueous solutions (adding 20% ethanol if necessary to solubilize in water), 200 μM of a test compound and 20 μM of solubilized Aβ40, or 400 μM of a test compound and 40 μM of solubilized Aβ40. The pH” for “The pH”
The key below describes the codes used in Table 3A to quantify the binding based on the intensity of the absorption.

[5] = Table 3D, 40 μM Aβ peptide, 400 μM compound
[6] = Table 3D, 40 μM Aβ peptide, 400 μM compound (so in the source)
[7] = Table 3C, 20 μM Aβ peptide, 100 μM compound
[8] = Table 3B, 30 μM Aβ peptide, 150 μM compound
[9] = Table 3B, 30 μM Aβ peptide, 150 μM compound (so in the source)

T1 sequence (P05067 672-711 limits assumed): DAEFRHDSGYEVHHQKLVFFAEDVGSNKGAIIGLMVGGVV

COc1ccc(NCCCS(=O)(=O)O)cc1 [HL]
MS binding Aβ1-40 [1, 5]: ++ (40-74% binding=(++))
MS binding IAPP [2, 6]: + (20-39% binding=(+))

O=S(=O)([O-])OCCCOS(=O)(=O)[O-].[Na+].[Na+] [NaO3SOCH2CH2CH2OSO3Na]
NAC peptide Binding Strength [3]: − (− = None; when the total binding is between 30% and 0%)

NCCS(=O)(=O)O [H2NCH2CH2SO3H]
NAC peptide Binding Strength [3]: + (+ = Weak; when the total binding is between 70% and 30%)

O=S(=O)([O-])CCCCS(=O)(=O)[O-].[Na+].[Na+] [NaO3SCH2(CH2)2CH2SO3Na]
NAC peptide Binding Strength [3]: − (− = None; when the total binding is between 30% and 0%)

NCCCCS(=O)(=O)O
NAC peptide Binding Strength [3]: + (+ = Weak; when the total binding is between 70% and 30%)

CC(CCN(C)C)S(=O)(=O)[O-].[Na+] (stereo not shown) [JO, 4-(dimethylamino)-2-butanesulfonic acid]
MS binding Aβ1-40 [1, 7]: + (20-39% binding=(+))
MS binding IAPP [4]: ++ (40-74% binding=(++))

CC(CCNC1C2CC3CC(C2)CC1C3)S(=O)(=O)O (stereo not shown) [JI, 4-(2-adamantyl)amino-2-butanesulfonic acid]
MS binding Aβ1-40 [1, 8]: +++ (60-100% binding=(+++))
MS binding IAPP [2, 9]: +++ (60-100% binding=(+++))

NCCOS(=O)(=O)O [NH2CH2CH2OSO3H]
NAC peptide Binding Strength [3]: − (− = None; when the total binding is between 30% and 0%)

O=S(=O)(O)CCCn1cccc1 [HV]
MS binding Aβ1-40 [1, 5]: ++ (40-74% binding=(++))
MS binding IAPP [2, 6]: + (20-39% binding=(+))

C[C@@H]([C@H](O)c1ccccc1)N(C)CCCS(=O)(=O)O [JE]
MS binding Aβ1-40 [1, 7]: − (<20%=(−))
MS binding IAPP [4]: ++ (40-74% binding=(++))

O=S(=O)(O)CCCn1ccnc1 [HR]
MS binding Aβ1-40 [1, 5]: ++ (40-74% binding=(++))
MS binding IAPP [2, 6]: − (<20%=(−))

O=S(=O)(O)CCCNCc1ccccc1OC(F)(F)F [IX]
MS binding Aβ1-40 [1, 7]: ++ (40-74% binding=(++))
MS binding IAPP [4]: +++ (75-100% binding=(+++))

C[C@@H](NCCCS(=O)(=O)O)c1ccccc1 [IY]
MS binding Aβ1-40 [1, 8]: ++ (40-59% binding=(++))
MS binding IAPP [2, 9]: +++ (60-100% binding=(+++))

CCOc1ccccc1CNCCCS(=O)(=O)O [JD]
MS binding Aβ1-40 [1, 7]: + (20-39% binding=(+))
MS binding IAPP [4]: ++ (40-74% binding=(++))

CCCCCCCCCNCCC(C)S(=O)(=O)[O-].[Na+] (stereo not shown) [JN, 4-(nonylamino)-2-butanesulfonic acid]
MS binding Aβ1-40 [1, 7]: ++ (40-74% binding=(++))
MS binding IAPP [4]: + (20-39% binding=(+))

O=S(=O)(O)CCCNc1ccccc1O [HU]
MS binding Aβ1-40 [1, 5]: +++ (75-100% binding=(+++))
MS binding IAPP [2, 6]: + (20-39% binding=(+))

CC(CCNC12CC3CC(CC(C3)C1)C2)S(=O)(=O)O (stereo not shown) [JH, 4-(adamantyl)amino-2-butanesulfonic acid]
MS binding Aβ1-40 [1, 8]: ++ (40-59% binding=(++))
MS binding IAPP [2, 9]: +++ (60-100% binding=(+++))

NCCCOS(=O)(=O)[O-].[Na+] [H2NCH2CH2CH2OSO3Na]
NAC peptide Binding Strength [3]: ++ (++ = Moderate; when the total binding is between 120% and 70%)

COc1ccc(OC)c(CNCCCS(=O)(=O)O)c1 [JB]
MS binding Aβ1-40 [1, 7]: + (20-39% binding=(+))
MS binding IAPP [4]: + (20-39% binding=(+))

O=S(=O)([O-])CCC[N+]12CCC(CC1)CC2 [JM]
MS binding Aβ1-40 [1, 7]: − (<20%=(−))
MS binding IAPP [4]: + (20-39% binding=(+))

Nc1ccc(NCCCS(=O)(=O)O)cc1 [HM]
MS binding Aβ1-40 [1, 5]: + (20-39% binding=(+))
MS binding IAPP [2, 6]: − (<20%=(−))

CC(CCNC1CC2CCC1C2)S(=O)(=O)O (stereo not shown) [JJ, 4-(bicyclo[2.2.1]hept-2-ylamino)-2-butanesulfonic acid]
MS binding Aβ1-40 [1, 7]: ++ (40-74% binding=(++))
MS binding IAPP [4]: +++ (75-100% binding=(+++))

CC(CCNC1CCCc2ccccc21)S(=O)(=O)O (stereo not shown) [JF, 4-(1,2,3,4-tetrahydro-1-naphthylamino)-2-butanesulfonic acid]
MS binding Aβ1-40 [1, 7]: + (20-39% binding=(+))
MS binding IAPP [4]: ++ (40-74% binding=(++))

O=S(=O)(O)CC(O)CNC1CCCCC1 (stereo not shown) [drawing 490]
NAC peptide Binding Strength [3]: +++ (+++ = Strong; when the total binding is 120% and higher)

O=S(=O)(O)CCCNC1C2CC3CC(C2)CC1C3 (stereo not shown) [drawing 488]
NAC peptide Binding Strength [3]: ++ (++ = Moderate; when the total binding is between 120% and 70%)

O=S(=O)(O)CCCN1CCC=C(c2ccccc2)C1 [IG]
MS binding Aβ1-40 [1, 5]: +++ (75-100% binding=(+++))
MS binding IAPP [2, 6]: ++ (40-74% binding=(++))

O=S(=O)(O)CCCNc1ccc(F)cc1 [HT]
MS binding Aβ1-40 [1, 5]: ++ (40-74% binding=(++))
MS binding IAPP [2, 6]: + (20-39% binding=(+))

C[C@H](NCCCS(=O)(=O)O)c1ccccc1 [JA]
MS binding Aβ1-40 [1, 7]: + (20-39% binding=(+))
MS binding IAPP [4]: ++ (40-74% binding=(++))

CCCC(CO)NCCC(C)S(=O)(=O)O (racemic) [JL, 4-[(dl)-1-hydroxy-2-pentyl]amino-2-butane sulfonic acid]
MS binding Aβ1-40 [1, 7]: ++ (40-74% binding=(++))
MS binding IAPP [4]: ++ (40-74% binding=(++))

CC(CCN)S(=O)(=O)O (stereo not shown) [JR, 4-amino-2-butanesulfonic acid]
MS binding Aβ1-40 [1, 8]: ++ (40-59% binding=(++))
MS binding IAPP [2, 9]: +++ (60-100% binding=(+++))

COc1ccccc1CNCCCS(=O)(=O)O [IW]
MS binding Aβ1-40 [1, 7]: ++ (40-74% binding=(++))
MS binding IAPP [4]: +++ (75-100% binding=(+++))

CC(C)(C)OC(=O)NCCCS(=O)(=O)O [IA]
MS binding Aβ1-40 [1, 5]: +++ (75-100% binding=(+++))
MS binding IAPP [2, 6]: + (20-39% binding=(+))

C[C@H]([C@@H](O)c1ccccc1)N(C)CCCS(=O)(=O)O [IZ]
MS binding Aβ1-40 [1, 7]: − (<20%=(−))
MS binding IAPP [4]: +++ (75-100% binding=(+++))
